The record followed here is patent US20020015940A1, “Method of gene expression screening” (priority 2000, published 2002).

One series deals with zwf promoter probe. The series can be described thus: stress probe-GFP fusion fluorescence after oxidative stress. To be noted: varying concentrations of stressor, 4 hours post-stress. Type of series: cell-based, E. coli. From the text:
(§1) Using GenBank to obtain the genomic sequence for each of the oxidative stress response genes, PCR primers are designed to amplify the promoter region. Generally the target for amplification was approximately 300 base pairs and encompasses the sequence upstream from the native translational start site. […] The entire promoter region flanked by incorporated restriction sites was cloned in frame with GFP on a plasmid. The stress probes were then transformed into E. coli.
(§2) Cells containing each stress probe-GFP fusion were cultured to early log phase, stressed with varying concentrations of paraquat or H2O2, and the fluorescence intensity measured at 4 hours post-stress. Due to the lethality of the higher concentrations of stresses, dividing by optical density (OD) normalized the fluorescence intensity values.

Another series concerns acnA promoter probe. Described as above. To be noted: varying concentrations of stressor, 4 hours post-stress. It is filed as cell-based, E. coli.
Description: as §1, §2

A further series has as its system recA promoter probe. The series is described as above. It is filed as cell-based, E. coli. To be noted: varying concentrations of stressor, 4 hours post-stress.
Description: as §1, §2

The test system of another series is sodA promoter probe. Described as above. It is filed as cell-based, E. coli. To be noted: varying concentrations of stressor, 4 hours post-stress.
Description: as §1, §2

A further series deals with dps promoter probe. The description is as above. Type of series: cell-based, E. coli. The note with it: varying concentrations of stressor, 4 hours post-stress.
Description: as §1, §2

In a further series the test system is sodA-GFP stress probe. Briefly: rate of change of GFP signal. To be noted: continuous stress by bolus of paraquat, FIG. 6. It is filed as cell-based, E. coli. From the text: The rate of change of the GFP signal measures the rate of the stress protein induction. This experiment compares the response of the sodA promoter to stresses in the form of a bolus of paraquat in one culture and a transient exposure to hyperoxia in another. A control culture consisting of uninduced sodA:GFP was included for comparison. […] An uninduced culture was included for comparison purposes.
The disadvantages of GFP as a reporter gene are its lag time for fluorescence (approximately 90 minutes) and extraordinary stability. One way to compensate for these is to measure the rate of change of the GFP fluorescence, which is possible using an LED-based sensor that permits continuous in situ measurements. The cell specific rate of change of GFP normalized to optical density is then a measure of the rate of gene expression of the stress protein.

In series [1] the test system is E. coli harboring the stress probes (soxS and sodA). Briefly: high throughput 96-well dose-response of stress probes. Type of series: cell-based. The note with it: for promoter probes turned on (mode of action): FIG. 5A and 5B. How it is done: 4. 0% cultures of E. coli harboring the stress probes were grown from a saturated overnight culture in 250 ml shake flasks containing 25 ml LB media and 100 μg/ml ampicillin at 35° C. with shaking at 260 rpm until the optical density reached 0.8 at 600 nm. 100 μl aliquots of culture were added to each well of a 96-well plate, along with 10 μl of various concentrations of the drug to be tested and incubated overnight. Experiments were run in duplicate. Fluorescence intensity and optical density measurements were taken using a Wallac 1420 VICTOR multilabel counter.
To test whether the procedure of Example 4 would work in a quantitative high throughput format, an experiment was conducted where the anti-tumor drug DNR was serially diluted and dose-response tested in a 96-well plate. For comparison, a similar experiment was conducted with paraquat.

Series [2] deals with pCRA11, sodA promoter probe construct. Briefly: agar plate spotting, zone of induction (green halo). Type of series: cell-based, E. coli. The note with it: higher and varied concentrations of drugs spotted on plate, overnight. The procedure:
(§3) 2.0% cultures were grown from saturated overnight cultures at […] with shaking at 260 rpm for 3 hours. A 4.0% inoculum was mixed with […] top agar (10 g/L NaCl, 5.0 g/L yeast extract, 10 g/L tryptone, 7.0 g/L agar) and 10 ml was layered on 150 mm petri dishes containing LB and ampicillin. 10 μl of each drug to be tested was spotted onto the plate and incubated at 35° C. overnight. Colonies were screened when plated onto LB plates containing compounds that are known to activate oxidative stress genes, paraquat and hydrogen peroxide.
(§4) As the drug diffuses through the media, it created a concentration gradient.

The next series relates to E. coli. The series can be described thus: toxicity response in the microbial system. It is filed as cell-based. To be noted: system of the present invention; consistent with mammalian cell studies. The procedure: as §3, §4

For `OO` [hydrogen peroxide], in the series with zwf promoter probe, the “fluorescence intensity normalized by optical density, zwf promoter probe” value was “no inducible response”. Further, the “fluorescence intensity normalized by optical density, acnA promoter probe” value in the series with acnA promoter probe is reported as “no inducible response”. Moreover, the “fluorescence intensity normalized by optical density, recA promoter probe” value in the series with recA promoter probe is “dose dependent response”. Moreover, the “fluorescence intensity normalized by optical density, sodA promoter probe” value in the series with sodA promoter probe was “no inducible response”. For the same molecule, the “fluorescence intensity normalized by optical density, dps promoter probe” value in the series with dps promoter probe was “dose dependent response”.

With `C[n+]1ccc(-c2cc[n+](C)cc2)cc1` [paraquat], the “rate of sodA expression (GFP derivative)” value with sodA-GFP stress probe is given as “continual gene expression of sodA”. Moreover, in the series with zwf promoter probe, the “fluorescence intensity normalized by optical density, zwf promoter probe” value is listed as “dose dependent response”. Also, in the series on acnA promoter probe, the “fluorescence intensity normalized by optical density, acnA promoter probe” value is reported as “dose dependent response”. In the series with recA promoter probe, the “fluorescence intensity normalized by optical density, recA promoter probe” value is “do not show a dose dependent response and are only inducible when exposed to higher paraquat concentrations”. Moreover, in the series on sodA promoter probe, the “fluorescence intensity normalized by optical density, sodA promoter probe” value is recorded as “dose dependent response”. Moreover, the “fluorescence intensity normalized by optical density, dps promoter probe” value with dps promoter probe is “do not show a dose dependent response and are only inducible when exposed to higher paraquat concentrations”. The “promoter probes turned on (mode of action)” value in [1] (96-well plate) is “turning on soxS and sodA”. Moreover, in series [1] (serial dilution in 96-well plate, overnight, FIG. 5B), the “shape of dose response” value is “monotonically increasing response”.

As for `COc1cccc2c1C(=O)c1c(O)c3c(c(O)c1C2=O)C[C@@](O)(C(=O)CO)C[C@@H]3O[C@H]1C[C@H](N)[C@H](O)[C@H](C)O1` [Doxorubicin, doxorubicin], in [2], the “induction of sodA promoter probe compared with induction of recA” value is given as “stronger induction of sodA than its induction of recA”.

Take `O=C1C=C(N2CC2)C(=O)C=C1N1CC1` [DZQ]: the “rank order of toxicity response” value in the series with E. coli was “MeDZQ, DZQ, and AZQ, were ranked in decreasing order of toxicity response”.

As for `CC1=C(N2CC2)C(=O)C(C)=C(N2CC2)C1=O` [MeDZQ, methyl diaziridinequinone], in the series with E. coli, the “rank order of toxicity response” value is “MeDZQ, DZQ, and AZQ, were ranked in decreasing order of toxicity response”.

Turning to `CCOC(=O)NC1=C(N2CC2)C(=O)C(NC(=O)OCC)=C(N2CC2)C1=O` [AZQ, diaziquone], in the series with E. coli, the “rank order of toxicity response” value is “MeDZQ, DZQ, and AZQ, were ranked in decreasing order of toxicity response”.

With `COc1cccc2c1C(=O)c1c(O)c3c(c(O)c1C2=O)C[C@@](O)(C(C)=O)C[C@@H]3O[C@H]1C[C@H](N)[C@H](O)[C@H](C)O1` [DNR, daunorubicin], the “promoter probes turned on (mode of action)” value in [1] (96-well plate) was “turning on soxS and sodA”. In series [1] (above 20 μM, 96-well plate), the “toxicity to cells beyond the concentration of maximal response” value is “becomes toxic and kills cells”. Besides, the “concentration at which maximal response is observed” value in series [1] (serial dilution in 96-well plate, overnight, FIG. 5A) is 20 µM.
